Reference: patent publication US20060025589A1, “2-Thiohydantoine derivative compounds and use thereof for the treatment of diabetes” (priority 2002, published 2006)

Each molecule was assayed on male C57BL/KsJ-db/db mice (assay: in vivo reduction of serum glucose and triglyceride levels in diabetic db/db mice). Settings: gavage, suspended in 3% gum arabic, twice daily for 10 days plus morning of day 11, doses below 200 mg/kg, generally 10 mg/kg, blood taken 4 h after last administration.
Procedure: The compounds of formula (I) according to the invention were subjected to pharmacological tests in order to evaluate their potential to reduce the blood glycemia level.
The in vivo studies were carried out on male C57BL/KsJ-db/db mice originating from CERJ (Route des Chênes Secs—BP 5—53940 Le Genest St Isle—France).
The animals are accommodated in cages fitted with a filter lid and have free access to an irradiated standard food and to filtered drinking water. All the equipment used (cages, feeding bottles, pipettes and shavings) is sterilized by autoclaving, irradiation or immersion in a disinfectant. The temperature of the room is maintained at 23±2° C. The light-dark cycle is 12 h.
During the acclimatization period, each animal is tagged with an electronic chip, which is implanted under anesthesia effected by the inhalation of a CO2/O2 mixture.
Groups of 8 to 10 mice are formed and the treatments start when the animals are 9 to 11 weeks old. The products are suspended in gum arabic at a concentration of 3% and administered to the animals by means of a gavage cannula for 10 days at a rate of two administrations per day, as well as on the morning of day 11. The products are tested at doses below 200 mg/kg and generally of 10 mg/kg. The animals in the control group receive the dosage vehicle only.
A blood sample is taken before treatment and then four hours after the last administration of the product. The animals are anesthetized by the inhalation of a CO2/O2 mixture and the blood is taken from the retro-orbital sinus, collected in a dry tube and kept cold. The serum is separated off by centrifugation at 2800 g (15 minutes, 4° C.) during the hour following sampling. The samples are kept at −20° C. until they are analyzed.
The serum glucose and triglyceride levels are determined on a Konélab 30 analyzer by means of Konélab kits. The animals whose glycemia before treatment was below 3 g/l are systematically excluded from the study.
For each group, the mean glucose and triglyceride levels after treatment are calculated and the results are expressed as the percentage variation of these means relative to the control group after verification of the homogeneity of the means before treatment.

SMILES | Gly (decrease in the glycemia level; percentage variation of mean serum glucose relative to the control group) [%] | TG (decrease in the triglyceride level; percentage variation of mean serum triglycerides relative to the control group) [%]
CC1C(=O)N(c2cccc(F)c2)C(=S)N1c1ccc(Oc2ccccc2)cc1 (centres unmarked) [Example 20, 3-(3-Fluorophenyl)-5-methyl-1-(4-phenoxyphenyl)-2-thioxoimidazolidin-4-one] | −47 | −47
COc1ccc(N2C(=O)C(C)(C)N(c3ccc(Oc4ccccc4)cc3)C2=S)cc1 [Example 30, 5,5-Dimethyl-3-(4-methoxyphenyl)-1-(4-phenoxyphenyl)-2-thioxoimidazolidin-4-one] | −54 | −53
COc1ccc(N2C(=O)C(C)N(c3ccc(OCc4ccccc4)cc3)C2=S)cc1 (centres unmarked) [Example 139] | −36 | −32
CC1C(=O)N(c2ccc(Cc3ccccc3)cc2)C(=S)N1c1ccccc1 (centres unmarked) [Example 185, 5-Methyl-1-phenyl-3-[4-(phenylmethyl)phenyl]-2-thioxoimidazolidin-4-one] | −57 | −39
C=CCN1CC(=O)N(c2ccc(Cc3ccccc3)cc2)C1=S [Example 190, 3-[4-(Phenylmethyl)phenyl]-1-(2-propenyl)-2-thioxoimidazolidin-4-one] | −58 | −53
COc1ccc(N2C(=O)CN(c3ccc(Cc4ccccc4)cc3)C2=S)cc1 [Example 195, 3-(4-Methoxyphenyl)-1-[4-(phenylmethyl)phenyl]-2-thioxoimidazolidin-4-one] | −53 | −46
COc1ccc(N2C(=O)C(C)N(c3ccc(Cc4ccccc4)cc3)C2=S)cc1 (centres unmarked) [Example 200, 3-(4-Methoxyphenyl)-5-methyl-1-[4-(phenylmethyl)phenyl]-2-thioxoimidazolidin-4-one] | −63 | −58
